Key:
[1] = tested on: Malondialdehyde (MDA) in serum; test: In vivo anti-lipid oxidation experiment (serum MDA, TBA method); parameters: inhibition rate %: concentration or dose not given beside the values; details: MAD lipid peroxidation in vivo; for inhibition rate %: relative to solvent DMSO and Chow averages; for avarage value of OD: serum, TBA method, 532 nm
Source text: Experimental principle: Malondialdehyde (MDA) in liposome degradation products could condense with thiobarbituric acid (TBA) to form a red product which has a maximum absorption peak at 532 nm. The spectrophotometer was used to measure the relative absorption value to calculate the antioxidant value.
Reagents: Malondialdehyde (MDA) test kit (article number: A003-1, […], Nanjing Jiancheng), glacial acetic acid of analytically pure grade.
Reagent preparations: 1) Reagent I: Reagent 1 in the kit was taken out from the refrigerator and subjected to natural warming until a transparent liquid is obtained; 2) Reagent II: 170 mL of double-distilled water was added to each bottle and mixed; 3) Reagent III: A dry powder in the kit was dissolved in 60 mL of double-distilled water at 90 to 100° C. After the dry powder was dissolved totally, 30 mL of glacial acetic acid was added and kept in dark place; 4) Standard: 10 nmol/mL tetraethoxypropane.
Experimental procedures: 1) Blank tube: To 2 mL centrifuge tube were added anhydrous ethanol (70 μl), Reagent I (70 μl), Reagent II (0.8 mL) and Reagent III (0.8 mL) in sequence; 2) Standard tube: To 2 mL centrifuge tube were added standard (70 μl), Reagent I (70 μl), Reagent 11 (0.8 mL) and Reagent III (0.8 mL) in sequence; 3) Measuring tube: To 2 mL centrifuge tube were added the serum to be tested and physiological saline (the total volume of serum and physiological saline is 70 μl), Reagent I (70 μl), Reagent II (0.8 mL) and Reagent III (0.8 mL) in sequence; 4) Control tubes: all samples are set up with corresponding control tubes. To a 2 mL centrifuge tube were added the serum to be tested and physiological saline (the total volume of serum and physiological saline is 70 μl), Reagent I (70 μl), Reagent II (0.8 mL) and 50% glacial acetic acid (0.8 mL) in sequence.
After the above reagents were added, the mixture was mixed homogenously. Then the mixture was left in the water bath at 95° C. for 60 minutes. The sample was centrifuged at 4000 rpm for 10 minutes. The supernatant was taken for the measurement of the OD value.
Experimental data processing: the MDA content in serum was calculated as follows: MDA=(OD valuemeasured−OD valuecontrol)/OD valuestandard*concentration of the standard Inhibition rate %=100−(ODsample-average value−average value of Chow)/(average value of the solvent DMSO−average value of Chow)*100

[2] = In vitro free radical inhibition test (DPPH method); details: 8 μL of 20 mmol/L compound in 1 mL DPPH 0.059 mg/mL ethanol, 60 min dark, 517 nm; for inhibition rate %: DPPH; for Relative inhibition ability on free radicals: inhibition rate of AGI1067 on DPPH defined as 100
Source text: 1. In Vitro Free Radical Inhibition Test (DPPH Method)
The single electron of DPPH radical has a strong absorption at […], and its alcohol solution is purple. In the presence of a free radical scavenger, the absorption of DPPH radical is weakened or disappeared for the reason that the free radical scavenger is paired with the single electron of DPPH radical, and the degree of discoloration is quantitatively related to the number of electrons DPPH radical receives. Therefore, a spectrophotometer can be used to quickly and quantitatively analyze the free radical scavenging rate of the compound.
1) 1 mL solution of DPPH in absolute ethanol (concentration: 0.059 mg/mL) was taken; 2) 8 μL of the compound to be tested (20 mmol/L) were added; 3) after mixing well, the resultant was kept in dark at room temperature for 60 minutes, 4) the absorbance of the sample at 517 nm was measured.

[3] = tested on: golden hamsters (60% high-fat food, STZ induced); test: Golden hamster disease model, animal model induction group (16-week-old group): blood biochemical indexes and body weight; format: in vivo
Procedure: Animals and feed: 1) 8-week-old male golden hamsters with a body weight range of 100±5 g were selected; 2) 60% high-fat food; 3) 30% high-fat food; 4) general feed: NRC standard feed, containing 5% fat, total calories 4200 kcal/kg.
Animal model induction group (16-week-old group): 1) fed with 60% high-fat food for 2 weeks under standard environment; 2) STZ intraperitoneal injection twice every two days, 50 mg/kg each time; 3) After STZ induction, the golden hamsters were continuous fed for 1 week; 4) Blood was taken from the ocular venous plexus, and the initial body weight, blood glucose, total cholesterol, LDL-c, HDL-c and triglyceride were measured, and the golden hamsters were grouped in parallel according to animal biochemical indicators, 8 in each group; 5) Gavage of compounds: 0.1 mL of solution of compound (concentration: 6.8 mg/mL, DMSO solution) and 0.25 mL of whole milk were mixed evenly and administrated by gavage once a day for 2 weeks; 6) Blank control: 0.1 mL of DMSO and 0.25 mL of whole milk were mixed evenly and administrated by gavage once a day for 2 weeks; 7) Observation time: 14 days later, blood was taken from the ocular venous plexus, and the body weight, blood glucose, total cholesterol, LDL-c, HDL-c and triglyceride were measured.
Instruments: Shimadzu UV-1750 spectrophotometer, clinical determination kit (Changchun Huili Biotechnology Co., Ltd.)
Determination of blood glucose: glucose oxidase method, kit
Determination of total cholesterol (COD-PAP method), kit
Determination of low density lipoprotein cholesterol (direct method), kit
Determination of triglyceride (GP-PAP method)
Determination of high density lipoprotein (direct method), kit

[4] = after gavage once a day for 2 weeks
[5] = change rate, gavage once a day for 2 weeks

## CC(C)(Sc1cc(C(C)(C)C)c(O)c(C(C)(C)C)c1)Sc1cc(C(C)(C)C)c(O)c(C(C)(C)CCn2cncn2)c1 [Compound 24, 2,6-di-tert-butyl-4-((2-((3-(tert-butyl)-4-hydroxy-5-(2-methyl-4-(1H-1,2,4-triazol-1-yl)butan-2-yl)phenyl)thio)propan-2-yl)thio)phenol]
[1]
  inhibition rate %: 53.3%
  avarage value of OD: 7.23
[2]
  inhibition rate %: 19.2%
  Relative inhibition ability on free radicals: 34.8

## CC(=O)OCCC(C)(C)c1cc(SC(C)(C)Sc2cc(C(C)(C)C)c(O)c(C(C)(C)C)c2)cc(C(C)(C)C)c1O [Compound 14, 3-(3-(tert-butyl)-5-((2-((3,5-di-tert-butyl-4-hydroxyphenyl)thio)propan-2-yl)thio)-2-hydroxyphenyl)-3-methylbutyl acetate]
[1]
  inhibition rate %: 55.9%
  avarage value of OD: 7.13
[2]
  inhibition rate %: 37.3%
  Relative inhibition ability on free radicals: 85.5

## CC(C)(Sc1cc(C(C)(C)C)c(O)c(C(C)(C)C)c1)Sc1cc(C(C)(C)C)c(O)c(C(C)(C)CCNS(=O)(=O)C2CC2)c1 [Compound 25, N-(3-(3-(tert-butyl)-5-((2-((3,5-di-tert-butyl-4-hydroxyphenyl)thio)propan-2-yl)thio)-2-hydroxyphenyl)-3-methylbutyl)cyclopropanesulfonamide]
[1]
  inhibition rate %: 48.1%
  avarage value of OD: 7.43
[2]
  inhibition rate %: 28.6%
  Relative inhibition ability on free radicals: 29.3

## CC(C)(Sc1cc(C(C)(C)C)c(O)c(C(C)(C)C)c1)Sc1cc(C(C)(C)C)c(O)c(C(C)(C)CCOC(=O)CCC(=O)NCCS(=O)(=O)O)c1 [Compound 27, 2-(4-(3-(3-(tert-butyl)-5-((2-((3,5-di-tert-butyl-4-hydroxyphenyl)thio)propan-2-yl)thio)-2-hydroxyphenyl)-3-methylbutoxy)-4-oxobutanamido)ethane-1-sulfonic acid]
[1]
  inhibition rate %: 30.2%
  avarage value of OD: 8.12
[2]
  inhibition rate %: 18.1%
  Relative inhibition ability on free radicals: 41.5

## CC(C)(C)C1=CC(=C2C=C(C(C)(C)C)C(=O)C(C(C)(C)C)=C2)C=C(C(C)(C)C)C1=O [Compound 29, 3,3′,5,5′-tetra-tert-butyl-[1,1′-bi(cyclohexylidene)]-2,2′,5,5′-tetraene-4,4′-dione, reference compound]
[1]
  inhibition rate %: 7.9%
  avarage value of OD: 8.98
[2]
  inhibition rate %: 8.8%
  Relative inhibition ability on free radicals: 20.1

## CC(C)(Sc1cc(C(C)(C)C)c(O)c(C(C)(C)C)c1)Sc1cc(C(C)(C)C)c(O)c(C(C)(C)CCOC(=O)[C@H](c2ccccc2Cl)N2CCc3sccc3C2)c1 [Compound 15, (S)-3-(3-(tert-butyl)-5-((2-((3,5-di-tert-butyl-4-hydroxyphenyl)thio)propan-2-yl)thio)-2-hydroxyphenyl)-3-methylbutyl 2-(2-chlorophenyl)-2-(6,7-dihydrothieno[3,2-c]pyridin-5(4H)-yl)acetate]
[1]
  inhibition rate %: 50.5%
  avarage value of OD: 7.34
[2]
  inhibition rate %: 19.1%
  Relative inhibition ability on free radicals: 43.8

## COc1cc(SC(C)(C)Sc2ccc(O)c(OC)c2)ccc1O [Compound 7, 4,4′-(propane-2,2-diylbis(thio))bis(2-methoxyphenol)]
[1]
  inhibition rate %: 47.6%
  avarage value of OD: 7.45
[2]
  inhibition rate %: 73.9%
  Relative inhibition ability on free radicals: 169.4

## CC(C)(Sc1cc(C(C)(C)C)c(O)c(C(C)(C)C)c1)Sc1cc(C(C)(C)C)c2c(c1)C(C)(C)CCO2 [Compound 10, 2,6-di-tert-butyl-4-((2-((8-(tert-butyl)-4,4-dimethylchroman-6-yl)thio)propan-2-yl)thio)phenol]
[1]
  inhibition rate %: 47.6%
  avarage value of OD: 7.45
[2]
  inhibition rate %: 41.1%
  Relative inhibition ability on free radicals: 94.1

## CC(C)(Sc1cc(C(C)(C)C)c(O)c(C(C)(C)C)c1)Sc1cc(C(C)(C)C)c(O)c(C(C)(C)CCOC(=O)CN)c1 [Compound 19, 3-(3-(tert-butyl)-5-((2-((3,5-di-tert-butyl-4-hydroxyphenyl)thio)propan-2-yl)thio)-2-hydroxyphenyl)-3-methylbutyl glycinate]
[1]
  inhibition rate %: 27.9%
  avarage value of OD: 8.21
[2]
  inhibition rate %: 32.1%
  Relative inhibition ability on free radicals: 42.6

## CC(C)(Sc1cc(C(C)(C)C)c(O)c(C(C)(C)C)c1)Sc1cc(C(C)(C)C)c(O)c(C(C)(C)C)c1 [Compound 30, probucol, reference compound]
[1]
  inhibition rate %: 53.3%
  avarage value of OD: 7.23
[3]; 0.1 mL of 6.8 mg/mL DMSO solution + 0.25 mL whole milk by gavage once a day for 2 weeks
  change rate of blood glucose %: −1.5%
[3]; DMSO blank deducted
  change rate of body weight after deduction of DMSO blank %: −4.1%
[3]; [4]
  average body weight after administration/g: 141.3 g
  change of body weight/g: 7.6 g
  change rate of body weight %: 5.7%
[3]; [5]
  HDL %: 63.3%
  LDL %: −12.2%
  total cholesterol %: 8.7%
  triglyceride %: −6.5%

## COC(=O)CSC(C)(C)Sc1cc(C(C)(C)C)c(O)c(C(C)(C)C)c1 [Compound 1, methyl 2-((2-((3,5-di-tert-butyl-4-hydroxyphenyl)thio)propan-2-yl)thio)acetate]
[1]
  inhibition rate %: 54.1%
  avarage value of OD: 7.20

## CCN(CC)CCOCCC(C)(C)c1cc(SC(C)(C)Sc2cc(C(C)(C)C)c(O)c(C(C)(C)C)c2)cc(C(C)(C)C)c1O [Compound 17, 2,6-di-tert-butyl-4-((2-((3-(tert-butyl)-5-(4-(2-(diethylamino)ethoxy)-2-methylbutan-2-yl)-4-hydroxyphenyl)thio)propan-2-yl)thio)phenol]
[1]
  inhibition rate %: 74.0%
  avarage value of OD: 6.43
[2]
  inhibition rate %: 27.8%
  Relative inhibition ability on free radicals: 63.7

## CC(C)(Sc1cc(C(C)(C)C)c(O)c(C(C)(C)C)c1)Sc1cc(C(C)(C)C)c(O)c(C(C)(C)CCN)c1 [Compound 16, 2-(4-amino-2-methylbutan-2-yl)-6-(tert-butyl)-4-((2-((3,5-di-tert-butyl-4-hydroxyphenyl)thio)propan-2-yl)thio)phenol]
[1]
  inhibition rate %: 25.0%
  avarage value of OD: 8.32
[2]
  inhibition rate %: 91.8%
  Relative inhibition ability on free radicals: 210.4
